The values that follow come from paper PMC8776894 (Communications Biology, 2022).

In series [1] the test system is HT22 hippocampal neuron cells (OGD/R). Nature of the series: Live-cell imaging of FITC-labeled VK. The format is cell-based, mouse. The settings on record: HT22 cells after OGD/R, 7.35 µM (b12; method b96: 100 nM), 37 °C, confocal fluorescence. Here is the method: VK (Gly–Arg–Pro–Hyp–[…]NH2) was labeled with FITC in the N-terminus. VK (100 nM) was added to each well and, after 15 min of incubation at 37 °C, live-cell images were acquired and processed by confocal microscopy (Zeiss LSM 880). Live-cell images were recorded for 90 min. The negative group was FITC treated without labeled VK.
After 24 h, medium in the transwell
Cell cultures, treatment, and OGD.
Experiments were divided into the four

A further series concerns brain of MCAO mice. Nature of the series: Fluorescence imaging of FITC-labeled VK in brain of stroke mice. The format is in vivo, mouse. The settings on record: stroke mice, brains collected at 0, 30, 60, 90, 120 min, confocal microscopy of sections. Here is the method: A successful MCAO model was established and these mice were used for subsequent experiments. Immediately after surgery, FITC or FITC-labeled VK were administered intravenously and mice were killed after 30 min to isolate the brain and imaged by an imaging system (IVIS Lumina II). For fluorescent imaging, the brain was immediately collected and kept in the dark for 0, 30, 60, and 90 min after the administration of VK. Frozen sections were prepared according to the above method (seen Morphological Assessment). Images were acquired by confocal microscopy (FV1000 MPE-B, Olympus).

A further series deals with rats. The settings on record: BK after transient forebrain ischemia in rats; ref not given; cited from earlier work. Here is the method:
After the onset of cerebral ischemia stroke, ATP levels expeditiously decline during the first 5 min and fall to ~15–30% of the ATP concentration measured in the non-ischemic hemisphere over the first 2 h after ischemia onset. In the present study, VK therapy partially recovered energy metabolism in the ischemic hemisphere as determined by the detection of ATP and LD content. Furthermore, to illustrate the effect of VK on energy metabolism in neurons, the glycolysis and oxidative phosphorylation pathways in neurons were also evaluated by Seahorse after stroke. Increasing evidence indicates tha ...

Series [2] concerns MCAO/R mice. The note with it: mouse, in vivo.
The subject of series [3] is MCAO/R mice. As to the kind of experiment: Evans blue extravasation, BBB permeability. The settings on record: VK 300 µg/kg. The format is in vivo, mouse.
A further series deals with AKT phosphorylation. Nature of the series: p-AKT immunoblot under OGD/R with HOE140. The format is cell-based. The note with it: HOE140 100 nM, VK 0.0735, 0.735, 7.35 µM. The source says:
(5 pictures or pasted objects on this page, not shown here)

For `CC[C@H](C)[C@H](NC(=O)[C@H](CCCNC(=N)N)NC(=O)[C@H](Cc1ccccc1)NC(=O)[C@@H]1CCCN1C(=O)[C@H](CO)NC(=O)[C@H](Cc1ccccc1)NC(=O)CNC(=O)[C@@H]1C[C@@H](O)CN1C(=O)[C@@H]1CCCN1C(=O)[C@H](CCCNC(=N)N)NC(=O)CNC(=S)Nc1ccc2c(c1)C(=O)OC21c2ccc(O)cc2Oc2cc(O)ccc21)C(=O)N[C@@H](CC(=O)O)C(N)=O` [FITC-labeled VK], in series [1], the “crossing of the cell membrane, live-cell imaging” value is listed as “partially crossed the cell membrane”. In the series on brain of MCAO mice, the “distribution in brain regions” value was “seen in the cortex, hippocampus, and striatum”.

Regarding “bradykinin (RPPGFSPFR; Bradykinin; UniProt P01042 381-389, looked up) [BK, endogenous peptide]”, the neuroprotection in the series on rats is reported as 97%. Consider “Lys-(des-Arg9-Leu8)-BK [reference compound]”, for which, in the series with MCAO/R mice [2], the “functional injury under combination of VK and B1R antagonist” value was “improved functional injury”.

In the case of HOE140, the “major pharmacological effects of VK under HOE140 preconditioning” value in the series on MCAO/R mice [2] was “blocked”. In addition, in the series with MCAO/R mice [3], the “BBB integrity under combined administration of VK and HOE140, EB extravasation” value is given as “damaged the BBB integrity”. The “VK-mediated AKT activation” value in the series with AKT phosphorylation is “inhibit VK-mediated AKT activation”.
